How the values were obtained:
[1] = system: SNL-induced mechanical hyperalgesia; test: SNL-induced mechanical hyperalgesia, von Frey; assay type: in vivo, mice; settings: SNL mice, ZL006-05 60 mg/kg/d, i.g., × 28 d; pregabalin 30 mg/kg/d
Experimental: (§1) Neuropathic pain was induced by segmental spinal nerve ligation (SNL). Animals were anesthetized with isoflurane. After the loss of righting reflex, the animal was fixed in the prone position. The SNL model was prepared as described previously: a median skin incision with about 3-5 cm length in L4-S2 level of the mouse back was made, the muscles next to the vertebrae till the sixth lumbar protruding were separated, the L5/L6 joint protruding on the right side was exposed and excised, and L6 processus transversus was partially split so that the L4-L6 spinal nerves on the right side were exposed. L5 nerve was gently isolated and tightly ligated with 5-0 silk thread. The wound was closed with 4-0 silk thread suture and covered with iodine solution. After nerve ligation, animals with signs of paw clonus or autotomy were excluded from further experiments.
For mice, the threshold for 50% PWT response to mechanical stimulus was quantified by assessing the paw withdrawal threshold using von Frey filaments (Touch-Test TM Sensory Evaluator, North coast Medical, Inc.). Mice were placed individually in a plastic cage (4.5 × 5 × 11 cm) with a wire mesh bottom which allowed full access to the paws. Behavioral accommodation was allowed for 20-30 min until cage exploration and major grooming activities ceased. Mechanical threshold was measured by applying a von Frey filament to the ventral surface of the right hind paw until a positive sign of pain behavior was elicited. The paradigm for assessing the threshold was as follows. Von Frey filaments with logarithmically incremental stiffness (0.02-2 g) were applied serially to the paw by the up-down method. The filaments were presented, in ascending order of strength, perpendicular to the plantar surface with sufficient force to causes light bending against the paw and held for 4s. A positive response was noted if the paw was sharply withdrawn. Flinching immediately upon removal of the hair was also considered a positive response. The 2-g filament was selected as the upper limit cut-off for testing. If there was no response at 2-g filament, animals were assigned this cut-off value. The pattern of positive and negative withdrawal responses was converted to 50% threshold according to the formula: 50% PWT = 10 log (X) + κδ. X = value (in log unit) of the final von Frey hair used; κ is correction factors based on the pattern of responses from the calibration table; δ = mean difference in log units between stimuli (here, 0.224).

[2] = system: SNL-induced mechanical hyperalgesia; test: SNL-induced mechanical hyperalgesia, paw withdrawal threshold; assay type: in vivo, rat; settings: SNL rats, 60 mg/kg/d, i.g., 11 d
Experimental: as §1
Osmotic minipumps (models 1004 for mouse and 2ML4 for rat; Alzet) and intrathecal cannulas (0.61 mm outer diameter and 0.28 mm inner diameter for mouse, 0.99 mm outer diameter and 0.58 mm inner diameter for rat) were filled with a solution of PBS. Cannulas were inserted into the subarachnoid space through the space between the L5 and L6 vertebrae and the tip of the catheter was implanted at the L5 spinal segmental level.
For rats, the threshold for 50% paw withdrawal (50% PWT) response to mechanical stimulus was assessed through a dynamic plantar apparatus (Ugo Basile, Italy). The 50% PWT refers to that the probability of paw withdrawal response to repeated mechanical stimulus is 50%. Rats were placed individually in a plastic cage (17 × 15 × 15 cm) with a wire mesh bottom which allowed full access to the paws. Behavioral accommodation was allowed for 15-20 min until cage exploration and major grooming activities ceased. A maximal cut-off of 50g/50s was set to prevent tissue damage. To record the PWT in response to mechanical stimulus, each rat was measured five times with a 5-min interval, and the mean value was recorded after excluding maximal and minimum values. The experimental procedures were performed in a double-blind manner.

[3] = target: T1, α2β3γ2 GABAARs (Homo sapiens, UniProt P18507+P28472+P47869); test: Potentiation of GABA-evoked currents, whole-cell patch-clamp in HEK293 cells transiently expressing recombinant GABAARs; assay type: cell-based
T1 construct: Shanghai Genechem Co.,Ltd (γ2 plasmid); host or cells: HEK293
Experimental: (§2) The affinities of drugs for α1, α2, α3 and α5 subunits were studied in the HEK293 cells (from FuHeng Biology, Shanghai, China) transiently expressing recombinant GABAARs (α1β2γ2, α2β3γ2, α3β3γ2 and α5β2γ2) as described previously. Briefly, the HEK293 cells were cultured in MEM medium supplemented with 10% FBS (fetal bovine serum, Gibico), 1% L-glutamine (Gibco) and 1% mycillin (Gibco). Before transfection, the cells were subcultured onto a 3.5cm dish at the ratio of 1:2. Then, the plasmids of α1/α2/α3/α5 (Origene), β2/β3 (Origene) and γ2 (Shanghai Genechem Co.,Ltd ) (5μg total DNA, ratio 1:1:2) were transfected using Fugene®HD transfection reagent (Promega). The γ2 subunit contained GFP from IRES (internal ribosomal entry site) and was used as a marker of the successful transfection. Cells were used for electrophysiology recording 18-36 hours after transfection.
(§3) Electrophysiology recordings from HEK293 cells were performed as described previously. Briefly, whole-cell patch-clamp recordings of GABA-evoked currents were made at 30 °C with the holding potential of -60 mV. The internal solution (solution in recording electrodes) contained (in mM): 120 CsCl, 10 EGTA, 10 HEPES, 4 MgCl2, 0.5 GTP, 2 ATP and pH was adjusted to 7.4 with CsOH and the external solution contained (in mM): 150 NaCl, 10 KCl, 2 CaCl2, 1 MgCl, 10 HEPES, 10 Glucose and pH was adjusted to 7.4 with NaOH. ACSF was bubbled continuously with carbogen (95%O2 and 5%CO2). For the recording of GABA-evoked currents, the slides were transferred to a recording chamber, which was perfused with ACSF at a rate of 4 ml/min. The cells were viewed under upright microscopy (Olympus), and GFP-positive cells were selected to record the currents. The interval time between each different dose of GABA was controlled, 3 to 5 minutes to avoid the desensitization of GABAARs.

[4] = target: T2, PSD-95-nNOS complex (Rattus norvegicus, UniProt P29476); test: Co-IP of PSD-95-nNOS complex levels in the spinal dorsal horn after SNL; assay type: in vivo; settings: SNL rats, 60 mg/kg/d, i.g., 3 d
T2 construct: dorsal spinal cord tissues (L4 and L5) were lysed in 400 μl RIPA; from tissue; host or cells: rat dorsal spinal cord (L4 and L5), SNL model

[5] = system: locomotor activity; test: Open field test, locomotor activity; assay type: in vivo; settings: mice, 1 h after injection, ZL006-05 60 mg/kg, i.v., diazepam 0.5 mg/kg
Experimental: The locomotor activity was assessed by the open field test as described previously. The apparatus consisted of a large area composed of plastic, surrounded by walls that were 100 cm high. The floor was 50 × 50 cm for mice; the overall illumination was 25 lux. Each animal was gently placed in the center of the open field, and its behavior was videotaped. The distance the animals travelled was measured in a 5-min session using ANY-maze (Stoelting Co., IL, USA). After each trial, the plate was cleaned with 70% EtOH. No stressor was applied to the animals for at least 12 h before the test.

[6] = system: motor coordination; test: Rotarod test, motor coordination; assay type: in vivo; settings: rats, 30 min after injection, ZL006-05 60 mg/kg, i.v., diazepam 0.5 mg/kg
[7] = target: T3, α1β2γ2 GABAARs (Homo sapiens, UniProt P14867+P18507+P47870); test: Potentiation of GABA-evoked currents, whole-cell patch-clamp in HEK293 cells transiently expressing recombinant GABAARs; assay type: cell-based; settings: α1β2γ2, n = 8
T3 construct: Shanghai Genechem Co.,Ltd (γ2 plasmid); host or cells: HEK293
Experimental: as §2, §3

[8] = target: T4, α3β3γ2 GABAARs (Homo sapiens, UniProt P18507+P28472+P34903); test: as above; assay type: cell-based; settings: α3β3γ2, n = 8
T4 construct: Shanghai Genechem Co.,Ltd (γ2 plasmid); host or cells: HEK293
Experimental: as §2, §3

[9] = system: spatial memory; test: Morris water maze task; assay type: in vivo; settings: rats; ZL006-05 90 mg/kg/d, i.g.; MK801 0.25 mg/kg/d, i.v.; 6 days
Experimental: The Morris water maze task was used to exam spatial cognitive performance of rats. A circular swimming pool (Jiliang Neuroscience Inc.) measuring 180 cm in diameter and 48 cm in height was filled with water to a depth of 26 cm at 24 ± 2 °C. Four starting points around the edge of the pool were designated as N, E, S, and W, which divided the pool into four quadrants. A platform, 10 cm in diameter, was located in a constant position in the middle of one quadrant. To render it invisible to the rats, platform was submerged 2.0 cm below the surface of the water. The task for the rats was to escape from the water by locating the hidden platform. Two days before training, the animals were habituated to swimming for 60 s in the pool without a platform. In training session, rats were trained to escape from the water by locating the platform which was above the water with a red flag on it. Then, one block of four trails was given for 6 consecutive days, and on each day, two groups of rats were administrated with MK801 (0.25 mg/kg, i.v.) or vehicle (6 mL/kg, i.v.) 30 minutes before the first trail. Meanwhile, another two groups of rats were treated with ZL006-05 (90 mg/kg, i.g.) or vehicle (6 mL/kg, i.g.) 1 hour before the first trail. […] During retention, the number of crossings of the platform location and the time spent in the target quadrant were measured.

[10] = system: neuropathic pain; design: method as in PMID 32632774; settings: treatment of neuropathic pain, chronic use; cited from earlier work

T1 sequence (P47869 29-451): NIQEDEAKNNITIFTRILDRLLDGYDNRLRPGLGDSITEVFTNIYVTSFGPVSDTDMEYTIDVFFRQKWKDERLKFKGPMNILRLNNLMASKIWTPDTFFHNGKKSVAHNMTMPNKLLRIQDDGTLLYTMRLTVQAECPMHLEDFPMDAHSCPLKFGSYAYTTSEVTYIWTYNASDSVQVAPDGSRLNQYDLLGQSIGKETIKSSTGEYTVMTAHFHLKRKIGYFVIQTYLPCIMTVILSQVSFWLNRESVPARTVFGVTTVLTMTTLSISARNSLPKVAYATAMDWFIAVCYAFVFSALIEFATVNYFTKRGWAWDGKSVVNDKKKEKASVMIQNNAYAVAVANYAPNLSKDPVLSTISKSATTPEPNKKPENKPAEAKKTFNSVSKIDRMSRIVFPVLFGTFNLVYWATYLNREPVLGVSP
T1 sequence (P28472 26-473): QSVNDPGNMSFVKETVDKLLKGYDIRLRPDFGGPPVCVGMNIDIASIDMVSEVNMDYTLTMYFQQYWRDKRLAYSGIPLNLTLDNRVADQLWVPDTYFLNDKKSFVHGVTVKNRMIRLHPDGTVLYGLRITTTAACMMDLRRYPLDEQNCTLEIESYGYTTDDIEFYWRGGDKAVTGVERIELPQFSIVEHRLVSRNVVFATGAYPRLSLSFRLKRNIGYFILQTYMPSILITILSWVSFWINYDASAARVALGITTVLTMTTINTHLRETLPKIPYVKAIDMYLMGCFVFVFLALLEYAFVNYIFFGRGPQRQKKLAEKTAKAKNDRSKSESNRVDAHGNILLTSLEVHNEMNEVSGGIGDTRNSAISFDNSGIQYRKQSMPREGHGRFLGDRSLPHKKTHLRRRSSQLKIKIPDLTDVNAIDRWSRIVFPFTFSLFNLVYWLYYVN
T1 sequence (P18507 40-475): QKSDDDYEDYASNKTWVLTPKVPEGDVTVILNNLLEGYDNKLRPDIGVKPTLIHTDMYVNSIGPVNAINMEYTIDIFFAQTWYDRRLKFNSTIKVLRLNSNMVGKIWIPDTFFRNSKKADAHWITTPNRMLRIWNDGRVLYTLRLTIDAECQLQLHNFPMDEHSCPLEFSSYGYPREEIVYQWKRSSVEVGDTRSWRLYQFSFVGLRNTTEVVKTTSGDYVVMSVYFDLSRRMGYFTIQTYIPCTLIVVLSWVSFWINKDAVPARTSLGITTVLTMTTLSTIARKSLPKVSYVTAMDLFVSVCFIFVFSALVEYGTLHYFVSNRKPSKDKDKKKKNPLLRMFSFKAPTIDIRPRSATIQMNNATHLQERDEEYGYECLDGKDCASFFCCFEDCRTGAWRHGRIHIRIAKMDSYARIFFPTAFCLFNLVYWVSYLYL
T2 sequence (P29476 whole entry, one chain of several): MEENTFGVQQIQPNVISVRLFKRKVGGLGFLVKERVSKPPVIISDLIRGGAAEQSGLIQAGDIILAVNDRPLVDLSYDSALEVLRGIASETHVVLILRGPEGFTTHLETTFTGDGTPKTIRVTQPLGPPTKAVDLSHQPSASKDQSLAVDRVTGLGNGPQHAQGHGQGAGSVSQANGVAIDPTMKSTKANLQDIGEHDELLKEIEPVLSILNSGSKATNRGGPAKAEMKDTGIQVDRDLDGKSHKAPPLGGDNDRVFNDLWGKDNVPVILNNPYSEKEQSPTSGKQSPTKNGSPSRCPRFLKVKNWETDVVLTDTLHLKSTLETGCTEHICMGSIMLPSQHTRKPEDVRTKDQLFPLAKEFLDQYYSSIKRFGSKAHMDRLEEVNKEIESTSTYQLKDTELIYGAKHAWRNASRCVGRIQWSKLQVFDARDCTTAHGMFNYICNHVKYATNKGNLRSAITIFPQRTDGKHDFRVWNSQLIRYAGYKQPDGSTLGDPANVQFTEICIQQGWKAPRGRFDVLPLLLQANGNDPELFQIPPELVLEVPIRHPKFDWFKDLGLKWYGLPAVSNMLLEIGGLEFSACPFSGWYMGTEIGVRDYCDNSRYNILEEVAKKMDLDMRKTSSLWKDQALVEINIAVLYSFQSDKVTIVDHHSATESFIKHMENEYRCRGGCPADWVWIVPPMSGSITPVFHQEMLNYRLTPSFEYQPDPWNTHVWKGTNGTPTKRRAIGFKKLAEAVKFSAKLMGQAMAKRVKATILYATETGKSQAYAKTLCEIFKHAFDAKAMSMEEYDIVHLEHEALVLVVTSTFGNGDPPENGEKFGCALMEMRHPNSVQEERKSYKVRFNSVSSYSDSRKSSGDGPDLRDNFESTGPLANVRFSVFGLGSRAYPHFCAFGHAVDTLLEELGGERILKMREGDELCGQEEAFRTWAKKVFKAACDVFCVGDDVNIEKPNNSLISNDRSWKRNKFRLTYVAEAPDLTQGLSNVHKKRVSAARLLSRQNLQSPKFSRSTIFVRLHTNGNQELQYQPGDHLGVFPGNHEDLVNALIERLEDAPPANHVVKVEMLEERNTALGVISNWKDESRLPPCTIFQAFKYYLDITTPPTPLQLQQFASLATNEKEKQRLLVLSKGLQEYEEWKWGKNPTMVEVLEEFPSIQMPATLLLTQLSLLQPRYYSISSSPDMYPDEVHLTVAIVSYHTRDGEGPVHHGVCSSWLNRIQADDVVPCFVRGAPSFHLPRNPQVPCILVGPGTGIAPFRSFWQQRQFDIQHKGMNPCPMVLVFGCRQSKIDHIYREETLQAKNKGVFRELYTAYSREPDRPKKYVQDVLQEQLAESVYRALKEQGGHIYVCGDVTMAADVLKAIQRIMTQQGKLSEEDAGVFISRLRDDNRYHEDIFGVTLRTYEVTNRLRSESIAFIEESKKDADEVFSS
T4 sequence (P34903 29-492): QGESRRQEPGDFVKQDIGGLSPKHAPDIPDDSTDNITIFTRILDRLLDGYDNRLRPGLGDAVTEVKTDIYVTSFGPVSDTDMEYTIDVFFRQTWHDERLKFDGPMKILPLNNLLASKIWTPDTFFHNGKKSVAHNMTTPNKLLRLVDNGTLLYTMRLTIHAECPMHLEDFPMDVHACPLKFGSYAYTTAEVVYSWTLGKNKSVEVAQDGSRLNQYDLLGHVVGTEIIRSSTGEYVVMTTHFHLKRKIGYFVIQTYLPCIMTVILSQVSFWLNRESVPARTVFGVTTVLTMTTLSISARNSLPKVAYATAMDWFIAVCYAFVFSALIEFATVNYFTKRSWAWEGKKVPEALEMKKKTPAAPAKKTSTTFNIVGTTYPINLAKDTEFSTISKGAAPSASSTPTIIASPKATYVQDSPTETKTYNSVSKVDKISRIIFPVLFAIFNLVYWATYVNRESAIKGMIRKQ
T4 sequence (P28472 26-473): as the sequence (P28472 26-473) above
T4 sequence (P18507 40-475): as the sequence (P18507 40-475) above
T3 sequence (P14867 28-456): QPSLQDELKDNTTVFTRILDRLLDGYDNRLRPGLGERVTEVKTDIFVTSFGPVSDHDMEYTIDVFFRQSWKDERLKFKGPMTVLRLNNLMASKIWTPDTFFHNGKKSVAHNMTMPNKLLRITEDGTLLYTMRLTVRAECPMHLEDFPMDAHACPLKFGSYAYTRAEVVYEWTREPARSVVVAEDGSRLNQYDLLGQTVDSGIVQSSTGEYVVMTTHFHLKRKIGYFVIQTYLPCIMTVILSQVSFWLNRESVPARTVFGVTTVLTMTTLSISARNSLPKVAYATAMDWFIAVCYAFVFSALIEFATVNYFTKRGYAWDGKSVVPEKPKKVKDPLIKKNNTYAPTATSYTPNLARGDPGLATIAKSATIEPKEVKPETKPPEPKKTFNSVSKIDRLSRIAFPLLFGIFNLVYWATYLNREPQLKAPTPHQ
T3 sequence (P47870 25-512 limits assumed): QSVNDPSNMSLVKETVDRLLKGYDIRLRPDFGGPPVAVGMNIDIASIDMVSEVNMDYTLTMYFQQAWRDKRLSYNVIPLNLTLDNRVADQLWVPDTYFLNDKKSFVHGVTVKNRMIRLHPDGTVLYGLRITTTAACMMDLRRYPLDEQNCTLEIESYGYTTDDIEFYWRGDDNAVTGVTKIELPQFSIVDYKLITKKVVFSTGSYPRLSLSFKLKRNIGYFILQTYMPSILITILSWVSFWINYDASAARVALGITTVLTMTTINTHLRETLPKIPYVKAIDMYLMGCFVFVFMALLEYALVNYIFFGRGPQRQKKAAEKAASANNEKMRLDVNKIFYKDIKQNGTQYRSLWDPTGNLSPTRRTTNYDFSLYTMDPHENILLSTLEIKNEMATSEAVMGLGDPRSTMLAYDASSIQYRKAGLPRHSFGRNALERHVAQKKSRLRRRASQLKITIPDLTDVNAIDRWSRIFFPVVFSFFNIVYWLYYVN
T3 sequence (P18507 40-475): as the sequence (P18507 40-475) above

CC(C)C[C@H](CN)CC(=O)O [pregabalin]
Analgesic tolerance, mechanical hyperalgesia, 28 days treatment [1]: caused a severe analgesic tolerance

CC1(C)C2CCC1(C)C(OC(=O)c1ccc(NCc3ccccc3O)cc1O)C2 (centres unmarked) [ZL006-05B]
Analgesic tolerance, mechanical hyperalgesia [2]: caused substantial analgesic tolerance | EC50 ([3]; α2β3γ2, n = 8): 2.834 ± 0.0033 nM | Emax ([3]; α2β3γ2, n = 8): 104 ± 21.9% | PSD-95-nNOS complex level in the SDH [4]: without ability to target PSD-95-nNOS

CN1C(=O)CN=C(c2ccccc2)c2cc(Cl)ccc21 [diazepam]
Locomotor activity, distance travelled during 5 min [5]: reduced the locomotor activity of mice in the open-field test | Motor coordination, time spent on the accelerating rotarod [6]: shortened the time for rats to fall off an accelerating rotarod significantly | Emax [7]: 109 ± 18.5% | Emax [8]: 113 ± 8.58% | Emax ([3]; α2β3γ2, n = 8): 118 ± 16.4%

C[C@]12N[C@H](Cc3ccccc31)c1ccccc12 [MK801]
Spatial memory in the Morris water maze task [9]: caused significantly impaired spatial memory | Analgesic tolerance when used chronically [10]: cause obvious analgesic tolerance

O=C(OC1CCCCC1)c1ccc(NCc2cc(Cl)cc(Cl)c2O)cc1O [ZL006-05A]
Analgesic tolerance, mechanical hyperalgesia [2]: caused substantial analgesic tolerance | Effect on α2-containing GABAAR (in words) ([3]; α2β3γ2): without ability to target α2-containing GABAAR

Reference: PMC8058733, “A pain killer without analgesic tolerance designed by co-targeting PSD-95-nNOS interaction and α2-containning GABAARs” (Theranostics, 2021)
